Measurements published in US12285407B2, “Bis-indolylmethane derivatives and uses thereof” (The University of The West Indies, priority 2018, dated 2025).

Assays:
[1] = In vivo acute toxicity (OECD guidelines); settings: one subcutaneous injection, 2000 mg/kg and 300 mg/kg; 14 days
[2] = system: Salmonella typhimurium ATCC 14028; test: Broth microdilution MIC of SP-BIMs; format: cell-based; settings: Salmonella enterica, read-out: MIC Salmonella tvpkimurium ATCC 14028
In short: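 S. typhimurium at ~10^6 CFU mL^−1 in cation-adjusted Mueller Hinton broth was exposed to twofold compound dilutions from 250 to 0.02 μg mL^−1 at 35° C. for 18 hours. Resazurin was then added, with 1 hour of shaking. MIC was the lowest concentration showing no blue-to-pink colour change.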

[3] = system: Bacillus cereus ATCC 14579; test: Broth microdilution MIC of SP-BIMs; format: cell-based; settings: ATCC14579, SP-BIM alone, read-out: MIC Bacillus cereus ATCC 14579
[4] = system: sarA, agrA, RNA III, mecA, blaZ and fnbA genes; test: Real time gene expression analysis in MRSA cells; settings: MRSA cells exposed to SP-BIM 13 only, or SP-BIM 13 in combination with ampicillin; 5 and 10 μg mL^−1
[5] = system: α-hemolysin production in Staphylococcus aureus; format: cell-based

Q: For `Oc1cc(C(c2c[nH]c3ccccc23)c2c[nH]c3ccccc23)cc(O)c1O` [SP-BIM 13, 5-(di(1H-indol-3-yl)methyl)benzene-1,2,3-triol], which mice deaths [1] is on record?
A: no mice deaths were recorded

Q: What about the “mice weight and appetite” value [1] of the same molecule?
A: did not significantly vary from the untreated mice

Q: And the MIC [2]?
A: 250 mg/L

Q: And the MIC [3]?
A: 125 mg/L

Q: What about the “expression of both the downstream and regulator genes” value [4] of the same molecule?
A: significantly reduced

Q: And the “lysis of RBCs” value [5]?
A: less than 50%
